Reference: US20240261418A1, “SOS1 DEGRADING AGENT AND PREPARATION METHOD THEREFOR AND APPLICATION THEREOF” (SHANGHAI LEADINGTAC PHARMACEUTICAL CO. LTD., priority 2021, published 2024)

Molecular target: T1, SOS1 protein (Homo sapiens, UniProt Q07889)
T1 sequence (Q07889 1-1333): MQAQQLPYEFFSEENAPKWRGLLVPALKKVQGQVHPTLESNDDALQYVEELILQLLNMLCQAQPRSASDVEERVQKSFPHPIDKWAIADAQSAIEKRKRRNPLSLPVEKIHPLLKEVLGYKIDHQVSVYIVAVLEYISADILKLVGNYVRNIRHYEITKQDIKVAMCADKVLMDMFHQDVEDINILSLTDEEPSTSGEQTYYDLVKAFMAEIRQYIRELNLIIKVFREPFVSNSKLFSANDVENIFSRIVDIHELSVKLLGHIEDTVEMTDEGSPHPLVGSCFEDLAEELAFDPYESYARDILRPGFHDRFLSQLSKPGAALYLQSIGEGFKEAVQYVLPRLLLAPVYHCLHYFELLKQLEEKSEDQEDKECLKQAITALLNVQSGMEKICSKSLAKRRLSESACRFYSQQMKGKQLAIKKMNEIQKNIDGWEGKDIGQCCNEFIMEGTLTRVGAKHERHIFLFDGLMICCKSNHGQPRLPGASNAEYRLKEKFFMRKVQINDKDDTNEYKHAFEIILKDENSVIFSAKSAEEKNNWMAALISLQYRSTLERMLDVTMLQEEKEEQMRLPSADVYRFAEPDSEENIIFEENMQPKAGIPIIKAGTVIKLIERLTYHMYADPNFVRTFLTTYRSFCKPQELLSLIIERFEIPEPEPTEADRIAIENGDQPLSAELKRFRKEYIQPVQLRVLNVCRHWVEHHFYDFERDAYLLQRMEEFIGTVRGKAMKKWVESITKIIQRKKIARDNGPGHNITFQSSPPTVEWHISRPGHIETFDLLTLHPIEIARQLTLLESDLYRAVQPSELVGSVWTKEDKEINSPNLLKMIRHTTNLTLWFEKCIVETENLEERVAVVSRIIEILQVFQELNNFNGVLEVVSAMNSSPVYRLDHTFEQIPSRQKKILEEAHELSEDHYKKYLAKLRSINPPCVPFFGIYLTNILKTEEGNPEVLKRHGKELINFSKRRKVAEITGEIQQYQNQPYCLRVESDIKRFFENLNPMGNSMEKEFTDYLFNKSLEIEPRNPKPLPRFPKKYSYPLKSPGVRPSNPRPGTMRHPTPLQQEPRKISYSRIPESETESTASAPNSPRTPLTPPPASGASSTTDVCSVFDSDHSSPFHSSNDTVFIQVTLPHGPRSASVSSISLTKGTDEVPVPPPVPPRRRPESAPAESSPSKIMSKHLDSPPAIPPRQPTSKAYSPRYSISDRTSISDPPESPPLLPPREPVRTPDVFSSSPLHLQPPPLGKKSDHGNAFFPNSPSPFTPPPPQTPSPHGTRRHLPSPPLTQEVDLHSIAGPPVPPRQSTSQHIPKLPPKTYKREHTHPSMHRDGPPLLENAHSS
Assay: SOS1 degradation assay (Western blot) in NCI-H358 cells
Format: cell-based
Conditions: NCI-H358 (KRAS G12C), 24 h
Procedure: The specific procedures were as follows:
0.95 mL of cells were seeded into each well of a 24-well cell culture plate to achieve a cell density of 5×10^5 cells/well; the cell plate was incubated in an incubator at 37° C. with 5% CO2 overnight. Then 50 μL of the compound solution after dilution was added to each of the wells with the corresponding cells, so that the final concentration of the compound was in a range of 0.03-3000 nM.
After dosing, the cell plate was incubated in an incubator at 37° C. with 5% CO2 for 24 h. […] After the plate was left to stand on ice for 30 min, the protein lysate in each well was transferred to a 1.5 mL centrifuge tube and centrifuged at 15000 g for 20 min at 4° C. The cell lysate supernatant after centrifugation was cryopreserved at −80° C. for testing and was used for determining the degradation level of the SOS1 protein by a WB method. The concentration of total protein in the cell lysate supernatant was determined using the BCA Protein Quantification Kit (Tiangen, PA115-02).
The concentration of total protein in the cell lysate was determined by BCA. The total protein was adjusted to 0.5 μg/μL with PBS and 5×SDS- PAGE protein loading buffer (Beyotime, P001L), incubated in a water bath at 100° C. for 15 min, incubated in an ice bath on ice for 5 min, centrifuged at 14000 g for 1 min at 4° C., and mixed well as a loading sample for WB. Protein electrophoresis was performed on a precast gel (KeyGEN, KGMG010W15) with a loading volume of 10 μL (total protein: 5 μg) using a Tris-MOPS-SDS running solution (Adamas, P1598253) at a constant voltage of 120 V for 55 min. After the electrophoresis, the protein on the gel strip was transferred to a PVDF membrane at a constant current of 250 mA for 65 min. After the membrane transfer, the membrane was incubated in 1× QuickBlock blocking buffer (Beyotime, P0235) for 30 min at room temperature. […] The protein map was subjected to gray value analysis by the chemiluminescence imaging system from Clinx. […] Then the degradation rate was calculated by comparing the gray correction value with the gray correction value of the control group. Then nonlinear curve fitting was performed by GraphPad Prism 8 in the logarithmic concentration-inhibition rate to obtain the DC50 and Dmax values of the compounds.

Row | SMILES | DC50 | Dmax
1 | COc1cc2nc(C)nc(N[C@H](C)c3cc(-c4c(Cl)cccc4CN(C)C)cs3)c2cc1[C@H]1CC[C@H](C(=O)N2CCN(CC3CCC4(CC3)CCN(C(=O)c3ccc(Cl)c(N5CCC(=O)NC5=O)c3)CC4)CC2)CC1 [Example 1, 1-(2-chloro-5-(9-((4-((1R,4R)-4-(4-(((R)-1-(4-(2-chloro-6-((dimethylamino)methyl)phenyl)thien-2-yl)ethyl)amino)-7-methoxy-2-methylquinazolin-6-yl)cyclohexane-1-carbonyl)piperazin-1-yl)methyl)-3-azaspiro[5.5]undecane-3-carbonyl)phenyl)dihydropyrimidine-2,4(1H,3H)-dione] | < 50 nM | 80 to 100%
2 | COc1cc2nc(C)nc(N[C@H](C)c3cc(-c4c(Cl)cccc4CN(C)C)cs3)c2cc1[C@H]1CC[C@H](C(=O)N2CCC(CCOCC3CCN(C(=O)c4ccc(Cl)c(N5CCC(=O)NC5=O)c4)CC3)CC2)CC1 [Example 5, 1-(2-chloro-5-(4-((2-(1-((1R,4R)-4-(4-(((R)-1-(4-(2-chloro-6-((dimethylamino)methyl)phenyl)thien-2-yl)ethyl)amino)-7-methoxy-2-methylquinazolin-6-yl)cyclohexane-1-carbonyl)piperidin-4-yl)ethoxy)methyl)piperidine-1-carbonyl)phenyl)dihydropyrimidine-2,4(1H,3H)-dione] | < 50 nM | 80 to 100%
